In patent publication US8846937B2, “Mono quaternary ammonium salts and methods for modulating neuronal nicotinic acetylcholine receptors” (University of Kentucky Research Foundation, priority 2006, dated 2014) one finds inhibition and Ki data, which are given here for 34 molecules.

In assay [1] the target is T1, Rat Striatal Nicotinic Receptors ([^3H]MLA binding) (Rattus norvegicus, UniProt Q05941).
T1 construct: Whole brain, excluding cortex and cerebellum, was homogenized; from tissue; host or cells: rat brain membranes (whole brain excluding cortex and cerebellum)
T1 sequence (Q05941 23-502): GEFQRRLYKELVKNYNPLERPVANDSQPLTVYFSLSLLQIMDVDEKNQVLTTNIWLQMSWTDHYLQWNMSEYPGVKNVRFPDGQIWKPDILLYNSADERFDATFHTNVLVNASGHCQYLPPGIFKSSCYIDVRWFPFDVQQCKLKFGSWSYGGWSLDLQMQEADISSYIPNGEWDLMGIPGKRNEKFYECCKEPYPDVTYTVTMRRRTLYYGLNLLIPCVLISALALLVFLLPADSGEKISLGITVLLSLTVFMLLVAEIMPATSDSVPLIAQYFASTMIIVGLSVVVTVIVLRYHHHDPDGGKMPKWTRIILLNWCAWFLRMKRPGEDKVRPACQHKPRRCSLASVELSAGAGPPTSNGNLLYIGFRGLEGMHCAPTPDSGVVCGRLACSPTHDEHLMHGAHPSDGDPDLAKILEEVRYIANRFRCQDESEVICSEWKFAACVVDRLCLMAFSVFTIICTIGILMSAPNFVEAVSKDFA
Kind of assay: Inhibition of [^3H]methyllycaconitine (MLA) binding to brain membranes. As to conditions: for inhibition at 0.1 µM: % inhibition at 100 nM analog, 2.5 nM [^3H]MLA, nonspecific 1 μM MLA (footnote); for Ki: full concentration effect, 2.5 nM [^3H]MLA (footnote). On the procedure: (§1) Test compounds of Formula (I), representing the mono quaternary nicotine analogs of the present invention, were evaluated to determine the effect of a test compound on nicotine-binding and methyllycaconitine-binding mediated by nicotine acetylcholine receptors.
Homogenate was centrifuged (25,000 g, 15 min, 4° C.). Pellets were resuspended in 20 volumes of buffer and incubated at 37° C., for 10 min, cooled to 4° C. and centrifuged (25,000 g, 15 min, 4° C.). Pellets were resuspended and centrifuged using the same conditions. […] Upon use, final pellets were resuspended in ˜20 volumes of assay buffer. […] A control sample absent test compounds of Formula (I) was also prepared. […] Incubations proceeded for 60 min at a room temperature using 96-well plates, and were terminated by harvesting on Unifilter-96 GF/B filter plates presoaked in 0.5% polyethylenimine, using a Packard FilterMate harvester. After washing 5 times with 350 μl ice-cold assay buffer, the filter plates were dried (60 min, 4° C.), bottom-sealed, and filled with Packard's MicroScint 20 cocktail (40 μl/well). After 60 min, filter plates were top-sealed, and levels of radioactivity were determined using a Packard TopCount. Protein concentrations were determined using the Bradford dye-binding procedure using bovine serum albumin as a standard protein. […]

For assay [2], the system named is nicotinic receptors, NIC-evoked [^3H]DA release from rat striatal slices. Kind of assay: Inhibition of nicotine-evoked [^3H]dopamine release from superfused rat striatal slices. It is filed as cell-based. Conditions: 1 h, 100 nM analog superfused 60 minutes prior to NIC (10 μM). On the procedure:
Rat striatal slices (500 μm thickness, 6-8 mg wet weight) were incubated for 30 minutes in Krebs buffer (118 mM NaCl, 4.7 mM KCl, 1.2 mM MgCl2, 1.0 mM NaH2PO4, 1.3 mM CaCl2, 11.1 mM glucose, 25 mM NaHCO3, 0.11 mM L-ascorbic acid, and 0.004 mM disodium EDTA at pH 7.4, and saturated with 95% O2/5% CO2) in a metabolic shaker at 34° C. Slices were rinsed with 15 mL of fresh buffer, and were incubated for an additional 30 minutes in fresh buffer containing 0.1 μM [^3H]dopamine (DA; 6 slices/3 mL). Subsequently, slices were rinsed with 15 mL of fresh buffer and transferred to a glass superfusion chamber. Slices were superfused (1.0 mL/min) for 60 minutes with Krebs buffer containing nomifensine (10 μM) and pargyline (10 μM), and maintained at 34° C., pH 7.4, with continual aeration (95% O2/5% CO2). Two five minute samples (5 mL each) were collected to determine basal outflow of [^3H]DA. The test compounds of Formula (I) were added to the superfusion buffer after the collection of the second sample, and were maintained in the buffer until 12 consecutive five minute samples were collected. Subsequently, S-(−)-nicotine (10 μM) was added to the buffer, and an additional 12 consecutive five minute samples were collected. At the end of the experiment, each slice was solubilized, and the [^3H]content of the tissue determined.
Radioactivity in the superfusate and tissue samples was determined by liquid scintillation spectroscopy. Fractional release of tritium collected in each sample was divided by the total tritium present in the tissue at the time of sample collection, and the fractional release of tritium collected was expressed as a percentage of total tritium. Basal [^3H]outflow was calculated from the average of the tritium collected in the two five minute samples just before addition of a test compound of Formula (I). The sum of the increase in collected tritium resulting from either exposure to a test compound of Formula (I), or exposure to S(−) nicotine in the absence and presence of a test compound of Formula (I) equaled total [^3H]overflow. [^3H]Overflow was calculated by subtracting the [^3H]outflow during an equivalent period of pre-stimulation from the values in samples collected during and after drug exposure. Inasmuch as the radio-labeled compounds were not separated and identified, the tritium collected in superfusate is referred to as either [^3H]outflow or [^3H]overflow, rather than as [^3H]DA. [^3H]Overflow primarily represents [^3H]DA in the presence of nomifensine and pargyline in the superfusion buffer.
The quaternary analogs of Formula (I) were also evaluated for their ability to inhibit NIC-evoked [^3H]DA release. In these experiments, the striatal slices were superfused for 60 minutes with 100 nM concentration of the quaternary analogs prior to NIC (10 μM) exposure. Antagonist activity was evaluated by comparing the NIC-evoked [^3H]overflow in the absence and presence of the analogs. The relative order of potency of the quaternary analogs of Formula (I) for inhibition of NIC-evoked [^3H]DA release from rat striatal slices is illustrated in Table 1.
^aData are % inhibition at 100 nM concentration of the mono quaternary analogs for at least 1-3 independent experiments; with the exception of when a Ki value in μM is provided, in which case a full concentration effect was evaluated. Specific binding in the [^3H]NIC binding assay is calculated as the difference between the total binding of 3 nM [^3H]NIC and nonspecific binding in the presence of 10 μM cold nicotine. Specific binding for the [^3H]MLA binding assay is calculated as the difference between the total binding of 2.5 nM [^3H]MLA to the receptors alone and its nonspecific binding in the presence of 1 μM cold MLA. Analog-induced inhibition of nicotine-evoked [^3H]DA release is calculated as a percent of that in the absence of the mono quaternary ammonium analog. ND indicates not determined.

Assay [3] concerns the target T2, Rat Striatal Nicotinic Receptors ([^3H]NIC binding) (Rattus norvegicus, UniProt P09483+P12390).
T2 construct: Whole brain, excluding cortex and cerebellum, was homogenized; from tissue; host or cells: rat brain membranes (whole brain excluding cortex and cerebellum)
Kind of assay: Inhibition of [^3H]nicotine binding to brain membranes. Conditions: 3 nM [^3H]NIC; for inhibition at 0.1 µM: % inhibition at 100 nM analog, nonspecific 10 μM nicotine; for Ki: full concentration effect. On the procedure: as §1
Homogenate was centrifuged (25,000 g, 15 min, 4° C.). Pellets were resuspended in 20 volumes of buffer and incubated at 37° C., for 10 min, cooled to 4° C. and centrifuged (25,000 g, 15 min, 4° C.). Pellets were resuspended and centrifuged using the same conditions. […] Upon use, final pellets were resuspended in ˜20 volumes of assay buffer. Samples (250 μl) contained 100-140 μg of membrane protein, 3 nM [^3H]nicotine or 3 nM [^3H]methyllycaconitine (MLA), and test compounds of Formula (I) (100 nM) in assay buffer containing 50 mM Tris. A control sample absent test compounds of Formula (I) was also prepared. In the [^3H]nicotine-binding assay and [^3H]MLA-binding assay, nonspecific-binding was determined in the presence of 10 μM nicotine and 10 μM MLA, respectively. Incubations proceeded for 60 min at a room temperature using 96-well plates, and were terminated by harvesting on Unifilter-96 GF/B filter plates presoaked in 0.5% polyethylenimine, using a Packard FilterMate harvester. After washing 5 times with 350 μl ice-cold assay buffer, the filter plates were dried (60 min, 4° C.), bottom-sealed, and filled with Packard's MicroScint 20 cocktail (40 μl/well). After 60 min, filter plates were top-sealed, and levels of radioactivity were determined using a Packard TopCount. Protein concentrations were determined using the Bradford dye-binding procedure using bovine serum albumin as a standard protein.
Specific binding in the [^3H]NIC binding assay is calculated as the difference between the total binding of 3 nM [^3H]NIC and nonspecific binding in the presence of 10 μM cold nicotine. […] Analog-induced inhibition of nicotine-evoked [^3H]DA release is calculated as a percent of that in the absence of the mono quaternary ammonium analog. ND indicates not determined.

A word on the inhibition: it is the change of the read-out against control, counted positive when it falls. Read a high inhibition as a response far below the control. What is called Ki is the equilibrium dissociation constant of an inhibitor or competing ligand from its target. Read a low Ki as higher affinity.

Where only a bound is given, the exact number is not on record here.

T2 sequence (P09483 31-630): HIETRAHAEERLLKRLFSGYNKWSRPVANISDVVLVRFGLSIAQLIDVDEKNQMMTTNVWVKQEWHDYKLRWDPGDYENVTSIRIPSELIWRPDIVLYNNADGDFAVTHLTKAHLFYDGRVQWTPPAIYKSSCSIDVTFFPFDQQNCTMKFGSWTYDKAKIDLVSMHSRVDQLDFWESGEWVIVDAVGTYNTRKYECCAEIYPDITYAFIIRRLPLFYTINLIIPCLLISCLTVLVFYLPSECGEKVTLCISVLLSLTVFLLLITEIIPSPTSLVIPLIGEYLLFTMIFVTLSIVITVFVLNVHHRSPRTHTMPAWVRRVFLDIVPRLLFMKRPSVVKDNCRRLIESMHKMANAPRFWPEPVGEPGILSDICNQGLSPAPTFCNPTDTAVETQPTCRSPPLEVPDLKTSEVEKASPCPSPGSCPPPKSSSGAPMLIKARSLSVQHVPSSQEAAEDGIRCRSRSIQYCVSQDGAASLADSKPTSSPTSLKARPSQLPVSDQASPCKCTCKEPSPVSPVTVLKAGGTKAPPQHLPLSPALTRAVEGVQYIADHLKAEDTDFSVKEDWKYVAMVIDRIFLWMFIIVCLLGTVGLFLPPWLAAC
T2 sequence (P12390 25-500): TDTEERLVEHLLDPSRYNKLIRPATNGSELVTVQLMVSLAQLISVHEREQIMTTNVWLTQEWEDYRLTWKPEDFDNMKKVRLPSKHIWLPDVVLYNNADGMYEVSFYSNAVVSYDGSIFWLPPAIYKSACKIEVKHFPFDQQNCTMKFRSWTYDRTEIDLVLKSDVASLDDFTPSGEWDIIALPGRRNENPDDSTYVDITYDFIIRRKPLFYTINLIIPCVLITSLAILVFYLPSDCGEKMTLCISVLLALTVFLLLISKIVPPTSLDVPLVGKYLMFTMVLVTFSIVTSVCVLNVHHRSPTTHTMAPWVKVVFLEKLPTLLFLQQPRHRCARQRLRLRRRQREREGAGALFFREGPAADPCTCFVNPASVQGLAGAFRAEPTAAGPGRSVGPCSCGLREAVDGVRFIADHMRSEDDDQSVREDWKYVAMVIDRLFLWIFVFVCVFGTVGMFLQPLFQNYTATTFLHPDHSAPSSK

In the case of `CCCCc1ccc(C#CCC[n+]2cccc(C)c2)cc1`, the values for the inhibition at 0.1 µM in assay [1], in assay [2] and in assay [3] were 0%, 11% and 0%, respectively.

Consider `CCCCc1ccc(CCCC[n+]2ccc(C)cc2C)cc1`, for which the inhibition at 0.1 µM was 0% in assay [1], 19% in assay [2] and 6% in assay [3].

Regarding `CCCCc1ccc(C#CCC[n+]2ccc(C)cc2)cc1`, the inhibition at 0.1 µM in assay [1] came out at 3%; in assay [2], 11%; in assay [3], 6%.

As to `C(#Cc1ccc(-c2ccccc2)cc1)CCC[n+]1ccc2ccccc2c1`, the inhibition at 0.1 µM was 6% in assay [1] and 0% in assay [3].

As to `CCCCc1ccc(C#CCC[n+]2cccc(CCCO)c2)cc1`, the inhibition at 0.1 µM in assay [1] and in assay [3] was 0% each time.

In the case of `Cc1cccc[n+]1CCCCCCCCc1ccccc1`, the inhibition at 0.1 µM was 0% in assay [1], 62% in assay [2] and 0% in assay [3].

`CCCCc1ccc(C#CCC[n+]2cc(C)cc(C)c2)cc1`: the inhibition at 0.1 µM in assay [1] and in assay [3] was 0% throughout.

Regarding `CCCCc1ccc(C#CCC[n+]2cccc(CC)c2)cc1`, the inhibition at 0.1 µM in assay [1] and in assay [3] was 0% throughout.

`c1ccc(-c2ccc(CCCCC[n+]3ccccc3)cc2)cc1` showed an inhibition at 0.1 µM in assay [2] of 30%.

As for `c1ccc(-c2ccc(CCCCC[n+]3ccc4ccccc4c3)cc2)cc1`, the inhibition at 0.1 µM was 6% in assay [1] and 0% in assay [3].

As to `Cc1cc(C)c[n+](CCCCCc2ccc(-c3ccccc3)cc2)c1`, the inhibition at 0.1 µM in assay [2] was 51%.

Regarding `CCCCc1ccc(CCCC[n+]2cccc(C)c2)cc1`, the inhibition at 0.1 µM came to 2% in assay [1], 33% in assay [2] and 4% in assay [3].

As for `CCCCc1ccc[n+](CCCC#Cc2ccc(-c3ccccc3)cc2)c1`, the figures for the inhibition at 0.1 µM in assay [1], in assay [2] and in assay [3] were 9%, 50% and 0%, respectively.

For the molecule `Cc1cc[n+](CCCC#Cc2ccc(-c3ccccc3)cc2)cc1C`, the values for the inhibition at 0.1 µM in assay [1], in assay [2] and in assay [3] were 8%, 20% and 0%, respectively.

In assay [2], `Cc1cc[n+](CCCCCc2ccc(-c3ccccc3)cc2)cc1C` yielded an inhibition at 0.1 µM of 38%.

On to `Cc1cc[n+](CCCCCc2ccc(-c3ccccc3)cc2)cc1`, for which the inhibition at 0.1 µM in assay [2] is 18%.

Take `CCCCc1ccc(C#CCC[n+]2ccc(C)c(C)c2)cc1`: the results for the inhibition at 0.1 µM in assay [1] and in assay [3] were 10% and 0%, respectively.

Regarding `CCCCc1ccc(CCCC[n+]2ccc3c(c2)CCCC3)cc1`, the Ki was 14 µM in assay [1] and more than 100 µM in assay [3].

For the molecule `Cc1cccc[n+]1CCCC#Cc1ccc(-c2ccccc2)cc1`, the inhibition at 0.1 µM in assay [1] worked out at 7%; in assay [2], 45%; in assay [3], 2%.

As for `Cc1cc[n+](CCCCCCCCc2ccccc2)cc1`, the values for the Ki in assay [1] and in assay [3] were 27 µM and more than 100 µM, respectively. Also, the inhibition at 0.1 µM in assay [2] turned out to be 12%.

Consider `Cc1ccc[n+](CCCCCc2ccc(-c3ccccc3)cc2)c1`, for which the inhibition at 0.1 µM in assay [1] was determined as 7%; in assay [2], 55%; in assay [3] it was 4%.

Take `c1cncc(CCCCCCCCCCCCC[n+]2ccc3c(c2)CCCC3)c1`: the figures for the Ki in assay [1] and in assay [3] were 7.2 µM and more than 100 µM, respectively. The inhibition at 0.1 µM in assay [2] was 0%.

As to `CCCCc1ccc(CCCC[n+]2cc(C)cc(C)c2)cc1`, the inhibition at 0.1 µM in assay [1] and in assay [3] was 0% throughout.

For `Cc1cc(C)c[n+](CCCC#Cc2ccc(-c3ccccc3)cc2)c1`, the results for the inhibition at 0.1 µM in assay [1], in assay [2] and in assay [3] were 3%, 51% and 8%, respectively.

`Cc1cc[n+](CCCCCCCCCCCCCc2cccnc2)cc1C`: the figures for the inhibition at 0.1 µM in assay [1], in assay [2] and in assay [3] were 0%, 20% and 3%, respectively.

Consider `Cc1ccc[n+](CCCCCCCCc2ccccc2)c1`, for which the Ki in assay [1] and in assay [3] was more than 100 µM throughout. The same molecule yielded an inhibition at 0.1 µM in assay [2] of 0%.

On to `Cc1cc[n+](CCCCCc2ccc(-c3ccccc3)cc2)c(C)c1`, for which the inhibition at 0.1 µM in assay [2] is 39%.

On to `CCCCc1ccc(CCCC[n+]2ccc(C)c(C)c2)cc1`, for which the inhibition at 0.1 µM in assay [1] and in assay [3] was 0% in each case.

Regarding `CCCCc1ccc(CCCC[n+]2ccccc2C)cc1`, the inhibition at 0.1 µM in assay [1] and in assay [3] was 0% throughout.

In assay [2], `CCCCc1ccc[n+](CCCCCc2ccc(-c3ccccc3)cc2)c1` had an inhibition at 0.1 µM of 43%.

Take `C(#Cc1ccc(-c2ccccc2)cc1)CCC[n+]1cccc(-c2ccccc2)c1`: the inhibition at 0.1 µM in assay [1] amounted to 6%; in assay [3] it was 8%.

For `c1ccc(-c2ccc(CCCCC[n+]3cccc4ccccc43)cc2)cc1`, testing at 0.1 µM in assay [2] gave an inhibition of 61%.

For the molecule `CN1CCC[C@H]1c1ccc[n+](CCCCCc2ccc(-c3ccccc3)cc2)c1`, the inhibition at 0.1 µM in assay [2] amounted to 51%.

Consider `Cc1cccc[n+]1CCCCCc1ccc(-c2ccccc2)cc1`, for which the inhibition at 0.1 µM in assay [2] was found to be 45%.
